Results reported in the supplement of paper PMC10307832.

Legend:
Experiment in all cases: relative viability (nuclei count vs DMSO), 5 days (fraction); higher = more cells survive
[1] = compound: CC1=C(CC(=O)O)c2cc(F)ccc2/C1=C\c1ccc([S+](C)[O-])cc1 [Sulindac] + C[C@@H](Oc1cc(-c2cnn(C3CCNCC3)c2)cnc1N)c1c(Cl)ccc(F)c1Cl [Crizotinib] (partner 1 µM)
Procedure, shortened: (§1)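 One day after seeding in 1536-well plates, lung cancer cell lines were dosed by pin tool. Dosing was either single-drug or a fixed anchor-drug dose plus five library-drug doses (not always all listed) in √10 steps. After 5 days, nuclei were stained in one fix-and-stain step and counted on 4× images, and relative viability is the nuclei count of treated wells over that of vehicle wells, given as the median of duplicate plates.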

[2] = compound: CC1=C(CC(=O)O)c2cc(F)ccc2/C1=C\c1ccc([S+](C)[O-])cc1 [Sulindac] + N=C(N)NC(=N)NCCc1ccccc1 [Phenformin] (partner 250 µM)
Procedure, shortened: as §1

[3] = compound: CN[C@@H]1C[C@H]2O[C@@](C)([C@@H]1OC)n1c3ccccc3c3c4c(c5c6ccccc6n2c5c31)C(=O)NC4 [Staurosporine] + Cc1nc(Nc2ncc(C(=O)Nc3c(C)cccc3Cl)s2)cc(N2CCN(CCO)CC2)n1 [Dasatinib] (partner 0.075 µM)
Procedure, shortened: as §1

[4] = compound: O=c1[nH]cc(F)c(=O)[nH]1 [5-Fluorouracil] + CC(C)C[C@H](NC(=O)[C@H](Cc1ccccc1)NC(=O)c1cnccn1)B(O)O [Bortezomib] (partner 0.002 µM)
Procedure, shortened: as §1

Row | Cell Line | relative viability ([1]; first compound 0.08 µM) | relative viability ([1]; first compound 0.253 µM) | relative viability ([1]; first compound 0.8 µM) | relative viability ([1]; first compound 2.53 µM) | relative viability ([1]; first compound 8 µM) | relative viability ([2]; first compound 0.08 µM) | relative viability ([2]; first compound 0.253 µM) | relative viability ([2]; first compound 0.8 µM) | relative viability ([2]; first compound 2.53 µM) | relative viability ([2]; first compound 8 µM) | relative viability ([3]; first compound 0.005 µM) | relative viability ([3]; first compound 0.05 µM) | relative viability ([3]; first compound 0.1581 µM) | relative viability ([3]; first compound 0.5 µM) | relative viability ([4]; first compound 0.02 µM) | relative viability ([4]; first compound 0.2 µM) | relative viability ([4]; first compound 0.6325 µM) | relative viability ([4]; first compound 2 µM) | relative viability ([3]; first compound 0.01581 µM)
1 | HCC-15 | 0.952 | 0.934 | 0.647 | 0.834 | 0.883 | 0.54 | 0.468 | 0.323 | 0.491 | 0.57 | 0.494 | 0.229 | 0.11 | 0.0769 | 1.18 | 1.03 | 0.534 | 0.322 | –
2 | HCC-44 | 0.892 | 0.88 | 0.768 | 0.9 | 0.861 | 0.181 | 0.205 | 0.186 | 0.159 | 0.261 | – | – | – | – | 0.931 | 0.84 | 0.601 | 0.35 | –
3 | HCC-78 | 0.305 | 0.326 | 0.327 | 0.296 | 0.401 | 0.792 | 0.689 | 0.614 | 0.763 | 0.738 | 0.357 | 0.339 | 0.26 | 0.264 | 0.471 | 0.546 | 0.525 | 0.274 | 0.295
4 | HCC-366 | 0.378 | 0.599 | 0.446 | 0.497 | 0.729 | 0.651 | 0.679 | 0.587 | 0.61 | 0.703 | 0.981 | 0.22 | 0.0316 | 0.022 | 1.08 | 0.946 | 0.523 | 0.0524 | –
5 | HCC-827 | 0.927 | 0.98 | 0.942 | 0.914 | 0.956 | 0.395 | 0.367 | 0.414 | 0.413 | 0.426 | 0.391 | 0.372 | 0.319 | 0.305 | 0.805 | 1.1 | 0.733 | 0.596 | 0.423
6 | HOP-62 | 1.06 | 1.25 | 1.06 | 0.843 | 0.987 | 0.785 | 0.937 | – | 0.746 | 0.759 | 0.343 | 0.109 | 0.124 | 0.0982 | 0.85 | 0.891 | 0.859 | 0.558 | 0.164
7 | IA-LM | 0.565 | 0.804 | 0.594 | 0.677 | 1.12 | – | – | – | – | – | – | – | – | – | 0.766 | 0.327 | 0.193 | 0.141 | –
8 | LK-2 | 0.185 | 0.243 | – | – | 0.216 | 0.412 | 0.421 | – | – | 0.529 | 0.551 | 0.271 | 0.139 | 0.121 | – | – | – | – | –
9 | NCI-H358 | 0.475 | 0.52 | 0.596 | 0.497 | 0.746 | 0.362 | 0.369 | 0.221 | 0.312 | 0.385 | 0.373 | 0.178 | 0.0752 | 0.0597 | – | – | – | – | 0.072
10 | NCI-H522 | – | – | – | – | – | 0.709 | 0.715 | 0.689 | 0.688 | 0.674 | 1.08 | 0.743 | 0.497 | 0.527 | – | – | – | – | –
11 | NCI-H1299 | 1.06 | 0.975 | 0.866 | 0.971 | 1.01 | – | – | – | – | – | – | – | – | – | 1.07 | 1.05 | 1.04 | 0.959 | –
12 | NCI-H1395 | – | – | – | – | – | 0.427 | 0.448 | 0.478 | 0.44 | 0.526 | 0.377 | 0.383 | 0.299 | 0.247 | – | – | – | – | 0.306
13 | NCI-H1623 | – | – | – | – | – | 0.561 | 0.595 | 0.663 | 0.632 | 0.6 | 0.635 | 0.651 | 0.553 | 0.41 | – | – | – | – | 0.425
14 | NCI-H1703 | 0.561 | 0.649 | 0.824 | 0.678 | 0.805 | – | – | – | – | – | – | – | – | – | 0.326 | 0.36 | 0.314 | 0.365 | –
15 | NCI-H1793 | – | – | – | – | – | 0.404 | 0.396 | 0.272 | 0.372 | 0.333 | 0.457 | 0.302 | 0.141 | 0.144 | – | – | – | – | –
16 | NCI-H1944 | 0.972 | 1.29 | 0.826 | 0.952 | 1.24 | 0.209 | 0.226 | 0.18 | 0.203 | 0.271 | 0.212 | 0.203 | 0.172 | 0.134 | – | – | – | – | 0.271
17 | NCI-H2170 | 1.21 | 1.21 | 0.771 | 1.2 | 1.23 | 0.471 | 0.407 | 0.411 | 0.384 | 0.432 | 0.91 | 0.648 | 0.106 | 0.117 | – | – | – | – | –
18 | NCI-H2342 | – | – | – | – | – | 0.647 | 0.594 | 0.475 | 0.546 | 0.625 | 0.297 | 0.26 | 0.234 | 0.27 | – | – | – | – | 0.243
19 | SK-MES-1 | 1.14 | 1.09 | 0.822 | 1.09 | 1.14 | 0.798 | 0.77 | 0.591 | 0.662 | 0.73 | 0.21 | 0.154 | 0.126 | 0.106 | – | – | – | – | 0.22
20 | SW 900 | – | – | – | – | – | – | 0.723 | – | 0.563 | 0.606 | 0.473 | 0.21 | 0.191 | 0.158 | – | – | – | – | 0.185
